The record followed here is US20260306460A1, “COMPOSITION FOR REMOVING AND INHIBITING SENESCENT CELLS, AND USES THEREOF” (LIFECEUTIX CO., LTD., priority 2023, published 2026).

Data set [1] relates to naturally aged C57BL6J mice. The data set can be described thus: Cardiac aging (cardiomyocyte size, Sur2a mRNA) in naturally aged mice, Example 21-13, Table 28. It is filed as in vivo, mouse. The settings on record: heart; for Cardiomyocyte cross-sectional area (μm2): untreated aged 372 (±9); for Sur2a mRNA (fold): untreated aged = 1. As to the method:
(§1) 22-month-old female C57BL6J mice (KRIBB Laboratory Animal Resource Center) were acclimated to the experimental environment for one week, after which the aged mice were randomly assigned to experimental and control groups. Eight-week-old, non-aged mice served as controls. LX-403 was mixed in a 10% ethanol solution of PEG400 and administered orally at a concentration of 25 mg/kg daily for 21 days, or administered to the skin, joints, or eyes at a concentration of 1 μM. LX-1801 was mixed in distilled water with 4% DMSO, 30% PEG300, and 5% Tween80 and administered to the skin, joints, or eyes at a concentration of 0.4 μM daily for 21 days. LX-2001 was mixed in PBS and administered to the skin, joints, or eyes at a concentration of […] daily for 21 days. LX-2002 was mixed in distilled water with 4% DMSO, 30% PEG300, and 5% Tween80 and administered to the skin, joints, or eyes at a concentration of 2 μM daily for 21 days. […] LX-2005 was mixed in distilled water with 4% DMSO, 30% PEG300, and 5% Tween80 and administered to the skin, joints, or eyes at a concentration of 90 μM daily for 21 days. LX-2007 was mixed in distilled water with 4% DMSO, 30% PEG300, and 5% Tween80 and administered to the skin, joints, or eyes at a concentration of 90 μM daily for 21 days. […] LX-3002 was mixed in distilled water with 4% DMSO, 30% PEG300, and 5% Tween80 and administered orally at a concentration of 10 mg/kg daily for 21 days. […] LX-5411 was mixed in 5% PBS and administered orally at a concentration of 10 mg/kg daily for 21 days or administered to the skin, joints, or eyes at a concentration of 3 μM. LX-5701 was mixed in PBS and administered orally at a concentration of 360 mg/kg daily for 21 days. LX-6807 was mixed in saline and administered intraperitoneally at a concentration of 1 mg/kg daily for 21 days. LX-2101 or LX-2102 was mixed in PBS solution with 5% DMSO and administered intraperitoneally at a concentration of 20 mg/kg or 10 mg/kg, respectively, daily for 21 days. The control group received only the solution in the same volume. After the end of drug administration, the methods described in each example below were performed.
At the histological level, cardiac aging is characterized by the loss of ventricular cardiomyocytes due to a decreased ability to replace apoptotic or necrotic cardiomyocytes, leading to hypertrophy of the remaining cardiomyocytes. To assess age-related cardiac hypertrophy, frozen cardiac tissue sections were stained with hematoxylin/eosin (H/E) and the thickness of ventricular cardiomyocytes was observed under an optical microscope.
Furthermore, cardiac aging is characterized by decreased stress tolerance, which is known to be due to decreased expression of ATP-sensitive potassium (KATP) channels. RNA was extracted from heart tissue as described in Example 7-2 of WO2023-085787 A1, and qRT-PCR was performed on Sur2a, a regulatory subunit of the KATP channel, using the synthesized cDNA.

Another data set relates to C57BL6-ApoE−/− mice. Put plainly: Atherosclerosis in ApoE-/- mice (p16 mRNA, vascular plaque), Example 27, Table 51. It is filed as in vivo, mouse. The settings on record: high-fat diet ApoE−/− mice; for p16 mRNA: aortic arch of thoracic aorta, untreated 100%; for Plaque number: thoracic aorta, Oil Red O, untreated 21.4 (±5.7). As to the method:
Fifteen-week-old male C57BL6-ApoE^−/−-mice (SLC) with atherosclerosis induced by a high-fat diet in the same manner as in Example 9-1 of WO2023-085787 A1 were acclimated to the experimental environment for one week and then randomly assigned to experimental and control groups. […] The control group was administered only the solution in the same volume. After the drug administration was terminated, the mice were sacrificed, and RNA was extracted from the aortic arch of the thoracic aorta using the same method as Example 7-2 of WO2023-085787 A1, and qRT-PCR was performed using the synthesized cDNA. In addition, the remaining part of the thoracic aorta was dissected, fixed flat in 4% paraformaldehyde at room temperature for 12 hours, and the vascular plaque was stained with Oil Red O using the same method as Example 23-5. […] The mRNA amount after aging was induced was calculated as 100% and compared with the mRNA amount of p16 after treatment with the test compound.

In the next data set the test system is SAMP8 mice. The data set can be described thus: Cognitive impairment in SAMP8 mice (p16 mRNA, Y maze), Example 28, Table 52. It is filed as in vivo, mouse. The settings on record: for Spontaneous alternation: Y maze test, 8 minutes, untreated 48.4 (±27.3); for p16 mRNA: hippocampus, daily for 21 days, untreated 100%. As to the method:
Twelve-week-old male SAMP8 mice (SLC), a cognitive impairment model, were acclimated to the experimental environment for one week and then randomly assigned to experimental and control groups. […] LX-2101 was mixed with 5% DMSO (Sigma) in PBS and administered intraperitoneally at a concentration of 10 mg/kg daily for 21 days. The control group received only the same volume of solution. After drug administration, the mice were tested in the Y maze test to analyze the degree of cognitive and memory improvement. The Y-maze test is a method to assess short-term memory-type spatial awareness. It is a Y-shaped enclosed maze made of black acrylic to the following specifications (40 cm in length, 8 cm in width, 13 cm in height, with each arm angled 120 degrees). Three arms are designated A, B, and C. A mouse is carefully placed on one arm and allowed to move freely for 8 minutes. The arm into which the mouse enters up to its tail is recorded in order. Each instance of entering each arm sequentially is awarded 1 point (actual alternation). Alternation behavior is defined as entering all arms without overlapping, and spontaneous alternation behavior is calculated using the following formula:
Spontaneous alternation behavior (%)=Actual alternation/Maximum alternation×100 • Maximum alternation: Total number of entries-2
After the behavioral evaluation, the mice were sacrificed, and RNA from the hippocampus region of the brain was extracted using the same method as Example 7-2 of WO2023-085787 A1, and qRT-PCR was performed using the synthesized cDNA.

The next data set deals with senescent human cells. The data set can be described thus: Viability of doxorubicin-induced senescent human cells (CellTiter-Glo), Example 11. It is filed as cell-based.
In data set [2] the test system is naturally aged C57BL6J mice. Put plainly: Lipofuscin staining in muscle of naturally aged mice, Example 21-4. It counts as in vivo, mouse. Particulars: untreated aged = 100, LX-5701 360 mg/kg po, LX-2101 20 mg/kg ip, LX-2102 10 mg/kg ip, daily 21 days. As to the method: as §1, with “The control group received only the solution in the same volume. After the end of drug administration, the methods described in each example below were performed.” left out
Mice were sacrificed and evaluated using the same method as in Example 7-4 of WO2023-085787 A1. […]

In data set [3] the test system is naturally aged C57BL6J mice. Put plainly: Serum IL6 and MCP1 (ELISA) in naturally aged mice, Example 21-5. It counts as in vivo, mouse. Particulars: untreated aged = 100, LX-5701 360 mg/kg po, LX-2101 20 mg/kg ip, LX-2102 10 mg/kg ip, daily 21 days. The procedure:
as §1
The amounts of IL6 and MCP1, senescence-associated secretory factors (SASPs), in serum collected from mice were measured using an enzyme-linked immunosorbent assay (ELISA Kit, R&D Systems).
For orientation: An ELISA detects its analyte on a solid surface through an enzyme-linked reagent.

Method for senescent human cells: Cells in which senescence was induced by treatment with doxorubicin were treated with the test compound at designated concentrations and measured using the CellTiter-Glo Luminescent Cell Viability Assay (Promega).
After 3 days, cell viability was measured using CellTiter-Glo Luminescent Cell Viability Assay (Promega) or light microscopy.

Consider `Cc1cccc([C@H](C)c2cnc[nH]2)c1C` [LX-6807, Dexmedetomidine], for which, in data set [1], the “Cardiomyocyte cross-sectional area (μm2)” value was 281 (±47.1) μm2 and the “Sur2a mRNA (fold)” value is 3.0 (±0.2) fold. Also, in the data set on C57BL6-ApoE−/− mice, the “p16 mRNA” value is recorded as 59 (±4.7) % and the Plaque number is listed as 15.3 (±2.4). In addition, in the data set with SAMP8 mice, the Spontaneous alternation is reported as 60.7 (±4.3) % and the “p16 mRNA” value is listed as 39 (±6.2) %.
Turning to `C[C@H]1[C@H](C)CC[C@]2(C(=O)O)CC[C@]3(C)C(=CC[C@@H]4[C@@]5(C)CC[C@H](O)C(C)(C)[C@@H]5CC[C@]43C)[C@H]12` [LX-2001, Ursolic acid], the viability at […] in the data set on senescent human cells (Homo sapiens, 3.3 μM, 0 μM = 100, read-out: Survival) worked out at 0.8%.
With `CC1(C)CC[C@]2(NC(=O)C(C)(F)F)CC[C@]3(C)[C@H](C(=O)C=C4[C@@]5(C)C=C(C#N)C(=O)C(C)(C)[C@@H]5CC[C@]43C)[C@@H]2C1` [LX-2101, Omaveloxolone], the “Lipofuscin (staining area)” value in data set [2] was 64 (±11.6) %. For the same compound, in data set [3], the IL6 is given as 49 (±21.8) % and the MCP1 is reported as 58 (±9.5) %. In the data set on SAMP8 mice, the Spontaneous alternation is given as 51.1 (±16.8) % and the “p16 mRNA” value is reported as 82 (±7.1) %.
Turning to `O=C1C2CCN(CC2)C1CNC(=O)C(F)(F)F` (stereo not shown) [LX-5701], in data set [2], the “Lipofuscin (staining area)” value is given as 69 (±10.8) %. Also, in data set [3], the IL6 is given as 68 (±14.1) % and the MCP1 is 62 (±9.8) %. Besides, in data set [1], the “Cardiomyocyte cross-sectional area (μm2)” value was 297 (±20) μm2 and the “Sur2a mRNA (fold)” value is given as 2.8 (±0.2) fold. In the data set with C57BL6-ApoE−/− mice, the “p16 mRNA” value is recorded as 71 (±12.8) % and the Plaque number is 12.7 (±4.6). Moreover, in the data set with SAMP8 mice, the Spontaneous alternation was 62.7 (±11.9) % and the “p16 mRNA” value is listed as 70 (±9.6) %.
Tocofersolan [LX-3001]: the Survival in the data set on senescent human cells (1.1 μM, 0 μM = 100) is 74.8%; with senescent human cells ([…], 0 μM = 100) it was 1.1%. The “Cardiomyocyte cross-sectional area (μm2)” value in data set [1] is on record as 345 (±27.6) μm2. For the same compound, the “p16 mRNA” value in the data set on C57BL6-ApoE−/− mice is recorded as 78 (±7.2) %; in the data set on SAMP8 mice, 64 (±2.8) %. Moreover, the Plaque number with C57BL6-ApoE−/− mice is recorded as 17.5 (±4.2). In the data set with SAMP8 mice, the Spontaneous alternation was 50.6 (±3.6) %.
On to `S=C(N/N=C1\CCCc2cccnc21)N1CCN(c2ccccn2)CC1` [LX-801], for which the Survival with senescent human cells (1.1 μM, 0 μM = 100) amounted to 50.5%; with senescent human cells (10 μM, 0 μM = 100), 28.2%; in the data set with senescent human cells ([…], 0 μM = 100), 48.9%.
In the case of `COC(=O)[C@]12CCC(C)(C)C[C@H]1[C@H]1C(=O)C=C3[C@@]4(C)C=C(C#N)C(=O)C(C)(C)[C@@H]4CC[C@@]3(C)[C@]1(C)CC2` [LX-2102, Bardoxolone methyl], the “Lipofuscin (staining area)” value in data set [2] is recorded as 71 (±8.1) %. Besides, in data set [3], the IL6 is 58 (±16.1) % and the MCP1 is on record as 61 (±14.0) %.
For `CCCC\C=C/C=C/C=C\CCCCCCCC(=O)O` [LX-2707, Punicic acid], in data set [1], the “Cardiomyocyte cross-sectional area (μm2)” value is reported as 331 (±15.7) μm2. In the data set with C57BL6-ApoE−/− mice, the “p16 mRNA” value is 81 (±6.0) % and the Plaque number is listed as 19.4 (±3.6). For the same compound, in the data set with SAMP8 mice, the Spontaneous alternation is 54.5 (±2.0) % and the “p16 mRNA” value is 75 (±3.3) %.
Consider `COC(=O)c1ccc([C@H]2c3[nH]c4ccccc4c3C[C@H](C(=O)OC)N2C(=O)CCl)cc1` [LX-405], for which, in the data set with senescent human cells (senescent foreskin cells, 30 μM, 3 days), the “induced death of cells” value is “induced the death of most cells”.
